Results reported in PubChem BioAssay AID1963825 (Molecular Pharmacology Branch, DTP, NCI, 2024).

Experiment: Anticancer human tumor 997537-175-T-J1-PDC patient-derived colon adenocarcinoma cell line growth inhibition [POLQ]
Conditions: 997537-175-T-J1-PDC complex spheroid viability, combination with POLQ inhibitors; for IC50: curve of first compound; for viability, T/C: stronger effect = lower value
Outline: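 Complex spheroid viability model combining PDC tumour cells with endothelial (HUVEC) and MSC stromal cells. Novobiocin, ART-558 or RP6685 were tested singly and in combination with standard and investigational anticancer drugs. Each was titrated in half-log steps from near clinical Cmax, or from 10 microM where Cmax was unknown.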

[1] = second compound 0.0316 µM, first compound 0.0316 µM
[2] = second compound 0.0316 µM, first compound 0.1 µM
[3] = second compound 0.0316 µM, first compound 0.316 µM
[4] = second compound 0.0316 µM, first compound 1 µM
[5] = second compound 0.1 µM, first compound 0.0316 µM
[6] = second compound 0.1 µM, first compound 0.1 µM
[7] = second compound 0.1 µM, first compound 0.316 µM
[8] = second compound 0.1 µM, first compound 1 µM
[9] = second compound 0.316 µM, first compound 0.0316 µM
[10] = second compound 0.316 µM, first compound 0.1 µM
[11] = second compound 0.316 µM, first compound 0.316 µM
[12] = second compound 0.316 µM, first compound 1 µM
[13] = second compound 1 µM, first compound 0.0316 µM
[14] = second compound 1 µM, first compound 0.1 µM
[15] = second compound 1 µM, first compound 0.316 µM
[16] = second compound 1 µM, first compound 1 µM
[17] = second compound 3.16 µM, first compound 0.0316 µM
[18] = second compound 3.16 µM, first compound 0.1 µM
[19] = second compound 3.16 µM, first compound 0.316 µM
[20] = second compound 3.16 µM, first compound 1 µM
[21] = second compound 10 µM, first compound 0.0316 µM
[22] = second compound 10 µM, first compound 0.1 µM
[23] = second compound 10 µM, first compound 0.316 µM
[24] = second compound 10 µM, first compound 1 µM
[25] = second compound 0.0316 µM, first compound 3.16 µM
[26] = second compound 0.0316 µM, first compound 10 µM
[27] = second compound 0.1 µM, first compound 3.16 µM
[28] = second compound 0.1 µM, first compound 10 µM
[29] = second compound 0.316 µM, first compound 3.16 µM
[30] = second compound 0.316 µM, first compound 10 µM
[31] = second compound 1 µM, first compound 3.16 µM
[32] = second compound 1 µM, first compound 10 µM
[33] = second compound 3.16 µM, first compound 3.16 µM
[34] = second compound 3.16 µM, first compound 10 µM
[35] = second compound 10 µM, first compound 3.16 µM
[36] = second compound 10 µM, first compound 10 µM
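Further: luminescence signal used as a surrogate for viable cells; spheroids exposed to drugs for seven days before readout.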

SMILES: CCc1c2c(nc3ccc(O)cc13)-c1cc3c(c(=O)n1C2)COC(=O)[C@]3(O)CC + Cc1cccc(N(C)C(=O)C2C(O)CCN2c2nc(C)cc(C(F)(F)F)c2C#N)c1
- IC50 (second compound 0.0316 µM): 0.0197 µM
- IC50 (second compound 0.1 µM): 0.0181 µM
- IC50 (second compound 0.316 µM): 0.0217 µM
- IC50 (second compound 1 µM): 0.0153 µM
- IC50 (second compound 3.16 µM): 0.0173 µM
- IC50 (second compound 10 µM): 0.0189 µM
- viability, T/C (second compound 0.0316 µM, first compound 0.00316 µM): 81.5%
- viability, T/C (second compound 0.0316 µM, first compound 0.01 µM): 68.8%
- viability, T/C [1]: 36.7%
- viability, T/C [2]: 13.7%
- viability, T/C [3]: 5.85%
- viability, T/C [4]: 4.36%
- viability, T/C (second compound 0.1 µM, first compound 0.00316 µM): 86.2%
- viability, T/C (second compound 0.1 µM, first compound 0.01 µM): 70.1%
- viability, T/C [5]: 30.7%
- viability, T/C [6]: 11.7%
- viability, T/C [7]: 6.03%
- viability, T/C [8]: 4.13%
- viability, T/C (second compound 0.316 µM, first compound 0.00316 µM): 82.7%
- viability, T/C (second compound 0.316 µM, first compound 0.01 µM): 77.2%
- viability, T/C [9]: 35.8%
- viability, T/C [10]: 15.8%
- viability, T/C [11]: 5.26%
- viability, T/C [12]: 5.26%
- viability, T/C (second compound 1 µM, first compound 0.00316 µM): 79.8%
- viability, T/C (second compound 1 µM, first compound 0.01 µM): 59.5%
- viability, T/C [13]: 33.5%
- viability, T/C [14]: 14.4%
- viability, T/C [15]: 5.49%
- viability, T/C [16]: 5.83%
- viability, T/C (second compound 3.16 µM, first compound 0.00316 µM): 91.5%
- viability, T/C (second compound 3.16 µM, first compound 0.01 µM): 65.3%
- viability, T/C [17]: 33%
- viability, T/C [18]: 14.8%
- viability, T/C [19]: 6.21%
- viability, T/C [20]: 5.14%
- viability, T/C (second compound 10 µM, first compound 0.00316 µM): 81.4%
- viability, T/C (second compound 10 µM, first compound 0.01 µM): 63%
- viability, T/C [21]: 39.5%
- viability, T/C [22]: 18.7%
- viability, T/C [23]: 5.71%
- viability, T/C [24]: 7.45%

SMILES: CC1COCCN1c1cc(-c2ccnn2C)c2ccnc(-c3ccn[nH]3)c2n1 (stereo not drawn) + Nc1ccc(C#CCN(C(=O)Cc2ncc(C(F)(F)F)cc2C(F)(F)F)c2ccc(F)cc2)nn1
- IC50 (second compound 0.0316 µM): > 10 µM
- IC50 (second compound 0.1 µM): 3.16 µM
- IC50 (second compound 0.316 µM): > 10 µM
- IC50 (second compound 1 µM): > 10 µM
- IC50 (second compound 3.16 µM): 3.16 µM
- IC50 (second compound 10 µM): 0.305 µM
- viability, T/C [1]: 103%
- viability, T/C [2]: 83.6%
- viability, T/C [3]: 58.3%
- viability, T/C [4]: 49.4%
- viability, T/C [25]: 36.8%
- viability, T/C [26]: 71.6%
- viability, T/C [5]: 101%
- viability, T/C [6]: 92.2%
- viability, T/C [7]: 38.2%
- viability, T/C [8]: 49.5%
- viability, T/C [27]: 48.3%
- viability, T/C [28]: 69.6%
- viability, T/C [9]: 99.1%
- viability, T/C [10]: 90.6%
- viability, T/C [11]: 51.4%
- viability, T/C [12]: 42.5%
- viability, T/C [29]: 52%
- viability, T/C [30]: 65.8%
- viability, T/C [13]: 93.1%
- viability, T/C [14]: 76.1%
- viability, T/C [15]: 39.4%
- viability, T/C [16]: 75.2%
- viability, T/C [31]: 50%
- viability, T/C [32]: 53.4%
- viability, T/C [17]: 99.2%
- viability, T/C [18]: 84.3%
- viability, T/C [19]: 36%
- viability, T/C [20]: 28.6%
- viability, T/C [33]: 52.5%
- viability, T/C [34]: 82%
- viability, T/C [21]: 83.5%
- viability, T/C [22]: 75.3%
- viability, T/C [23]: 39.2%
- viability, T/C [24]: 32.5%
- viability, T/C [35]: 57.5%
- viability, T/C [36]: 67.5%

SMILES: CCc1cc2c(N3CCc4c(cc(Cn5ccnc5)cc4-c4cn(C)nc4C(F)(F)F)C3=O)cc(C)nc2c(OC)n1 + Nc1ccc(C#CCN(C(=O)Cc2ncc(C(F)(F)F)cc2C(F)(F)F)c2ccc(F)cc2)nn1
- IC50 (second compound 0.0316 µM): > 10 µM
- IC50 (second compound 0.1 µM): > 10 µM
- IC50 (second compound 0.316 µM): > 10 µM
- IC50 (second compound 1 µM): > 10 µM
- IC50 (second compound 3.16 µM): > 10 µM
- IC50 (second compound 10 µM): > 10 µM
- viability, T/C [1]: 96%
- viability, T/C [2]: 98.5%
- viability, T/C [3]: 98.1%
- viability, T/C [4]: 86.8%
- viability, T/C [25]: 76%
- viability, T/C [26]: 67.4%
- viability, T/C [5]: 88.7%
- viability, T/C [6]: 97%
- viability, T/C [7]: 77.7%
- viability, T/C [8]: 79.6%
- viability, T/C [27]: 68.3%
- viability, T/C [28]: 74.9%
- viability, T/C [9]: 93.4%
- viability, T/C [10]: 87.3%
- viability, T/C [11]: 99.5%
- viability, T/C [12]: 96.5%
- viability, T/C [29]: 84%
- viability, T/C [30]: 77.5%
- viability, T/C [13]: 96.4%
- viability, T/C [14]: 103%
- viability, T/C [15]: 84%
- viability, T/C [16]: 80.9%
- viability, T/C [31]: 78.9%
- viability, T/C [32]: 51%
- viability, T/C [17]: 102%
- viability, T/C [18]: 103%
- viability, T/C [19]: 99.7%
- viability, T/C [20]: 89.7%
- viability, T/C [33]: 65.4%
- viability, T/C [34]: 73.7%
- viability, T/C [21]: 105%
- viability, T/C [22]: 104%
- viability, T/C [23]: 87.6%
- viability, T/C [24]: 96.8%
- viability, T/C [35]: 71.8%
- viability, T/C [36]: 76.7%

SMILES: CC1COCCN1c1cc(-c2ccnn2C)c2ccnc(-c3ccn[nH]3)c2n1 (stereo not drawn) + COC1C(OC(N)=O)C(O)C(Oc2ccc3c(O)c(NC(=O)c4ccc(O)c(CC=C(C)C)c4)c(=O)oc3c2C)OC1(C)C
- IC50 (second compound 0.0316 µM): 0.221 µM
- IC50 (second compound 0.1 µM): 0.648 µM
- IC50 (second compound 0.316 µM): 0.314 µM
- IC50 (second compound 1 µM): 0.409 µM
- IC50 (second compound 3.16 µM): 0.666 µM
- IC50 (second compound 10 µM): > 10 µM
- viability, T/C [1]: 77.2%
- viability, T/C [2]: 70.2%
- viability, T/C [3]: 40.4%
- viability, T/C [4]: 47%
- viability, T/C [25]: 24.8%
- viability, T/C [26]: 51.3%
- viability, T/C [5]: 83.3%
- viability, T/C [6]: 81.5%
- viability, T/C [7]: 64.1%
- viability, T/C [8]: 42.5%
- viability, T/C [27]: 24.7%
- viability, T/C [28]: 52.9%
- viability, T/C [9]: 88.1%
- viability, T/C [10]: 88.1%
- viability, T/C [11]: 49.7%
- viability, T/C [12]: 46.3%
- viability, T/C [29]: 33%
- viability, T/C [30]: 66.8%
- viability, T/C [13]: 96.5%
- viability, T/C [14]: 75%
- viability, T/C [15]: 54.3%
- viability, T/C [16]: 39%
- viability, T/C [31]: 33.1%
- viability, T/C [32]: 56.1%
- viability, T/C [17]: 99.5%
- viability, T/C [18]: 88.9%
- viability, T/C [19]: 66.1%
- viability, T/C [20]: 31.5%
- viability, T/C [33]: 27.4%
- viability, T/C [34]: 64.9%
- viability, T/C [21]: 87%
- viability, T/C [22]: 64.7%
- viability, T/C [23]: 44%
- viability, T/C [24]: 54%
- viability, T/C [35]: 32.2%
- viability, T/C [36]: 70.3%
